“Also recorded” adds a separate entry of the source. Read-outs that look alike come from different tables or passages of the source.
Key:
[1] = target: T1, CFTR (Oryctolagus cuniculus, UniProt Q00554); assay: short-circuit current in freshly isolated rabbit conjunctiva, CFTR; type: cell-based
T1 construct: ocular surface PD measurements provide information about CFTR function in its native environment; from tissue; host or cells: rabbit ocular surface in vivo (cornea and conjunctiva); freshly isolated rabbit forniceal and palpebral conjunctiva
T1 sequence (Q00554 whole entry): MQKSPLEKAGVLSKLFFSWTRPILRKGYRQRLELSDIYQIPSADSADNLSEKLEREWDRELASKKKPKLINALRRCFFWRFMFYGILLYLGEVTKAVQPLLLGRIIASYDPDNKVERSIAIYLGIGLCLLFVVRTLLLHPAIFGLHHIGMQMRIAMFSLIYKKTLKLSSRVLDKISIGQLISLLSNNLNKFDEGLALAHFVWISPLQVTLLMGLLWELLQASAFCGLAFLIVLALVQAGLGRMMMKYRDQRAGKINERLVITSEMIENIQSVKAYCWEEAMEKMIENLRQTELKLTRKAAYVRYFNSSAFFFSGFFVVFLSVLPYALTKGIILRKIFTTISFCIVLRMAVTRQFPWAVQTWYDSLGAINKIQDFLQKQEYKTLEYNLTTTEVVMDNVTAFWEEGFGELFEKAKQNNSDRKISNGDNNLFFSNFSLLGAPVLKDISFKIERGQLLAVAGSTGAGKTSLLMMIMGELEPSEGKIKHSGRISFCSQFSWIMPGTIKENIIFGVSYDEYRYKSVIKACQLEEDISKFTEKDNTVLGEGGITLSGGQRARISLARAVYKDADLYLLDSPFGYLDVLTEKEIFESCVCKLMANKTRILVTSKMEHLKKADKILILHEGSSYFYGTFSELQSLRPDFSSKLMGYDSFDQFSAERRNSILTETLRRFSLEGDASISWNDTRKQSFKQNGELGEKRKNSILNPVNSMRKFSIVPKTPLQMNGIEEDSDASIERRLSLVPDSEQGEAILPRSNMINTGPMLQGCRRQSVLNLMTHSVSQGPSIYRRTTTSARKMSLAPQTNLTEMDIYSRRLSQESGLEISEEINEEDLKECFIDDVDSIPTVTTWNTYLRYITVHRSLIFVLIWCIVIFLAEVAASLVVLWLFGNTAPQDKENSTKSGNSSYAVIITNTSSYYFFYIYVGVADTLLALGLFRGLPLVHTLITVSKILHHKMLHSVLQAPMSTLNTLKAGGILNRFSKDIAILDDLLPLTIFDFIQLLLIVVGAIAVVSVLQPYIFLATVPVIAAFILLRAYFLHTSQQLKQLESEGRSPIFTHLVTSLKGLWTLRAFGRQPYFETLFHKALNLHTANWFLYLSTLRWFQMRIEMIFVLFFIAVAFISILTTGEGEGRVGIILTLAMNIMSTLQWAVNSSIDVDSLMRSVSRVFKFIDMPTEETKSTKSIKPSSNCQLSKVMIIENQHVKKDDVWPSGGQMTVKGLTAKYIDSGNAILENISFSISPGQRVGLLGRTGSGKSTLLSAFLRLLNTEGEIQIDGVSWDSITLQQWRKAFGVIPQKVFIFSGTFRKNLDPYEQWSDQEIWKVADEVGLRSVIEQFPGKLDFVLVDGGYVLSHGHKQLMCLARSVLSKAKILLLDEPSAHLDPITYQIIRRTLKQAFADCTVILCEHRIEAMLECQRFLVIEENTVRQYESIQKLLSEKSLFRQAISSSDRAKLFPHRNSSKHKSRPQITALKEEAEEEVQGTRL
Procedure: Short-circuit current was measured in freshly isolated rabbit conjunctiva, as described^16 with modification. Rabbits were euthanized by injection of 150 mg/kg euthasol into the marginal ear vein. The entire eyeball with eyelids intact was removed from the orbit to preserve conjunctival epithelium integrity. Within 10 min a sheet of forniceal and palpebral conjunctiva was dissected, mounted onto a P2304 tissue slider (Physiologic Instruments, San Diego, CA), and placed into the Ussing chamber. The apical and basolateral chambers contained (in mM): 120 NaCl, 3 KCl, 1 CaCl2, 1 MgCl2, 10 glucose, 25 NaHCO3 and 5 HEPES, pH 7.4. […] Hemichambers were connected to a DVC-1000 voltage clamp (World Precision Instruments Inc., Sarasota, FL) via Ag/AgCl electrodes and 3 M KCl agar bridges.
In separate electrophysiological studies, CFTR activation was measured in freshly isolated conjunctiva ex vivo by short-circuit current analysis.

[2] = target: T1, CFTR; assay: open-circuit ocular surface potential difference (PD) in anesthetized rabbits, CFTR; type: in vivo; conditions: rabbit
Procedure: Open-circuit transepithelial potential difference (PD, in mV) at the ocular surface was measured continuously in anesthetized rabbits using a procedure modified from that established in mice. […] Rabbits were intubated and anesthetized with isoflurane, and respiratory rate, blood pressure and body temperature were monitored. For PD recording, solutions (see below) were serially perfused at 10 mL/min through PE-90 plastic tubing using a gravity multi-reservoir pinch-valve system (ALA Scientific, Westbury, NY) and a variable-flow peristaltic pump (medium flow model; Thermo Fisher Scientific, Fair Lawn, NJ). A probe catheter was fixed onto an adjustable stereotaxic frame with the tip immersed in solution contacting the ocular surface. Excess fluid was aspirated by continuous suction (low-powered wall vacuum) using ⅛-inch tubing (inner diameter 3/32 inch) positioned 3 mm from the orbit in order to maintain near-constant perfusate volume in contact with cornea, bulbar conjunctiva and palpebral conjunctiva without fluid runoff. The measuring electrode contacted the perfusion catheter and was connected to a high-impedance voltmeter (IsoMilivolt Meter; World Precision Instruments, Sarasota, FL). The reference electrode was grounded using a winged, 25-gauge needle filled with normal saline inserted subcutaneously in the abdomen. The measuring and reference electrodes consisted of Ag/AgCl with 3 M KCl agar bridges.
All solutions contained 10 M indomethacin to prevent CFTR activation by prostaglandins.

[3] = system: rabbits; assay: chronic administration, ocular toxicity (clinical examination, histology); type: in vivo; conditions: rabbit
Procedure: In chronic treatment studies, eyes were treated twice daily for 28 days as described above. STT, intraocular pressure (IOP), and central corneal thickness were measured on days 0, 7, 14, 21 and 28. Slit lamp examinations were performed on days 0, 14 and 28 by a board-certified ophthalmologist blinded to treatment status. STT was done one hour after the first treatment of the day (9 am). IOP was measured with a Tonolab rebound tonometer (Colonial Medical Supply, Windham, NH). Central corneal thickness was measured using the Corneo-Gage Plus 2 pachymeter (Sonogage Inc., Cleveland, OH). […] One minute later, photographs of the eye were taken with a digital camera and staining was evaluated according to a 12-point scale as described^17: each corneal quadrant was scored in a blinded fashion on a 3-point scale: grade 0, no staining; grade 1, sporadic staining (involving <25% of the total surface); grade 2, diffuse punctate staining (25-75%); and grade 3, coalesced punctate staining (≥75%). The total grade is reported as the sum of scores from all 4 quadrants, ranging from 0 to 12. Conjunctival congestion, chemosis, discharge, corneal haze or neovascularization, anterior chamber cellular reaction or flare, iris neovascularization, lens opacification or loss of red reflex, were each rated using a modified McDonald-Shadduck scale on a four-point scale, where zero is normal.
A subset of chronically treated eyes were enucleated with eyelids intact after transcardial perfusion with PBS followed by 4% paraformaldehyde, and left overnight in 4° C. in 30% sucrose. […] Cryosections (8 μm thickness) were stained with hematoxylin and eosin (H&E) using a standard protocol.

[4] = tissue levels by LC/MS following chronic administration; type: in vivo; conditions: rabbit, 3 nmol twice-daily for 28 days
Procedure: In chronic treatment studies, Compound A (3 nmol, or formulation control) was given twice daily (8 am and 4 pm) for 28 days. Two mL of blood was collected from the marginal ear vein in EDTA tubes. Rabbits were then euthanized using 150 mg/kg euthasol, and ocular tissues, serum and peripheral organs were collected. Using a surgical microscope, 150 μL of aqueous humor was collected through the peripheral cornea using a 25-gauge needle, and 300 μL of vitreous fluid was aspirated through the pars plana with a 23-gauge needle. Following transcardial perfusion with heparinized phosphate-buffered saline (PBS), eyes were enucleated with lids intact, and the cornea, iris/ciliary body, lens, bulbar, forniceal and palpebral conjunctiva, and retina of both eyes were dissected, weighed, homogenized in 1:4 mixture of water:ethyl acetate (10 mL/1 g tissue) and centrifuged (3000 rpm for 15 min). Plasma, aqueous and vitreous samples were each mixed with 3 volumes of ethyl acetate and centrifuged for 15 min at 13,200 rpm, and the supernatant was evaporated and re-dissolved in HPLC eluent (100 μL of 1:3 water:acetonitrile containing 0.1% formic acid) for LC/MS analysis. Also, brain, kidney, heart and liver were removed, weighed, mixed with 1:4 mixture of water:ethyl acetate (10 mL/1 g tissue), and homogenized. The homogenized samples were vortexed and centrifuged (3000 rpm for 15 min), and the ethyl acetate-containing supernatant was evaporated, and then re-dissolved in HPLC eluent for LC/MS analysis. The lower limit of detection for Compound A was ˜0.2 pg/mg of homogenized tissue or biological fluid, which was defined as giving a signal-to-noise ratio >3.

[5] = system: rabbits; assay: chronic administration, tear volume by STT; type: in vivo; conditions: rabbit, 3 nmol twice-daily for 28 days
Procedure: (§1) Tear production was measured using the anesthetized Schirmer Tear Test (STT, Eagle Vision, Memphis TN). To minimize reflex tearing, one drop of 0.5% proparacaine hydrochloride (Akorn, Lake Forest, TL) was placed onto the corneal surface and excess fluid was absorbed at the medial canthus using eye spear sponges (Fine Science Tools, Foster City, CA). After 5 min the notched strip was inserted into the lower lateral conjunctival fornix, maintaining contact with the lateral cornea. The wetted length (mm) of the strip indicated by blue dye appearance was read after 5 min.
In chronic treatment studies, Compound A (3 nmol, or formulation control) was given twice daily (8 am and 4 pm) for 28 days. Two mL of blood was collected from the marginal ear vein in EDTA tubes. Rabbits were then euthanized using 150 mg/kg euthasol, and ocular tissues, serum and peripheral organs were collected. […]
In chronic treatment studies, eyes were treated twice daily for 28 days as described above. STT, intraocular pressure (IOP), and central corneal thickness were measured on days 0, 7, 14, 21 and 28. […] IOP was measured with a Tonolab rebound tonometer (Colonial Medical Supply, Windham, NH). Central corneal thickness was measured using the Corneo-Gage Plus 2 pachymeter (Sonogage Inc., Cleveland, OH). […]

[6] = liver; in vitro microsomal stability; cited from earlier work
[7] = target: CFTR (Homo sapiens, UniProt P13569); conditions: cited from earlier work; for extent of CFTR activation / EC50: cell cultures; for EC50: read-out: EC50 of CFTR activation
Sequence of CFTR (Homo sapiens, UniProt P13569) (P13569 whole entry, species assumed): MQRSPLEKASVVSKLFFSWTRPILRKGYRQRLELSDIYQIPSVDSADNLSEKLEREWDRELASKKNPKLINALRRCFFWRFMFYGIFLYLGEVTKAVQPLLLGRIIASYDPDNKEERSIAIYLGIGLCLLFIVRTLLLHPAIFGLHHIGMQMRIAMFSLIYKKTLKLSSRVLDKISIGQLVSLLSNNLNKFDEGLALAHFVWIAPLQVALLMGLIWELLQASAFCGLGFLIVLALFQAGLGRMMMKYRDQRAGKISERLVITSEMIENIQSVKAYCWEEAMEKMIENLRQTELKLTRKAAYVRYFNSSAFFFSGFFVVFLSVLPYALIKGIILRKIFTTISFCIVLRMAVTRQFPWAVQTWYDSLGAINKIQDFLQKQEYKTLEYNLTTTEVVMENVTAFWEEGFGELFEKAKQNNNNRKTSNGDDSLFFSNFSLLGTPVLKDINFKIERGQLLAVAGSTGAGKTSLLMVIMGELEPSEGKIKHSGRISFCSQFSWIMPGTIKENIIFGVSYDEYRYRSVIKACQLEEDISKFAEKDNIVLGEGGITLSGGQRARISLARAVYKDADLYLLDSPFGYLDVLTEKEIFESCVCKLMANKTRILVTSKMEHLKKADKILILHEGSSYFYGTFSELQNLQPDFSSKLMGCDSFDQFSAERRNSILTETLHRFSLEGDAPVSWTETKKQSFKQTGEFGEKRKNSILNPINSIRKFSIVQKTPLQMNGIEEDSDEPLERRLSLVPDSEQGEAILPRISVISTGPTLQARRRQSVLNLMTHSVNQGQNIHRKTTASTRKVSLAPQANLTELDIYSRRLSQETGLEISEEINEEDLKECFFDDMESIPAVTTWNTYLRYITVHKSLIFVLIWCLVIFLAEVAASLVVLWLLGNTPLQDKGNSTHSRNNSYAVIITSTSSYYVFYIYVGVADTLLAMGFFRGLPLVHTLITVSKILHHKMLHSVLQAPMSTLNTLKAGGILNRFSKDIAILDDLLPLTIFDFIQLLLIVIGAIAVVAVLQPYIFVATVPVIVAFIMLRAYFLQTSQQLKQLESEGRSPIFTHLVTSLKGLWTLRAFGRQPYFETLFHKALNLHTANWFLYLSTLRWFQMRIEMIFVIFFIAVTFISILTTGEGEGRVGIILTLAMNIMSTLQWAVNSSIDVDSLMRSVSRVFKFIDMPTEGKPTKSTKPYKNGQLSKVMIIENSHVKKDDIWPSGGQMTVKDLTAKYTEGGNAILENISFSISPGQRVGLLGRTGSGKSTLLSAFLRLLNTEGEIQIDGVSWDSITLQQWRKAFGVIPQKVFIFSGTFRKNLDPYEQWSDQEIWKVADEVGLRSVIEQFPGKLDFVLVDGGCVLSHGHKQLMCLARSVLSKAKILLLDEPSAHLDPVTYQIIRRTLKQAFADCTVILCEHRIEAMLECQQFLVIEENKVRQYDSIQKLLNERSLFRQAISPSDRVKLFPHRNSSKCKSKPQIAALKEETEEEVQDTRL

[8] = system: CFTR-deficient mice; conditions: cited from earlier work
[9] = system: rabbits; assay: Schirmer Tear Test II after single topical dose (pharmacodynamics); type: in vivo, rabbit
Procedure: as §1
Serial STT measurements were done before and at 1, 3, 6, 9, 12 and 24 hours following application of a single 30-μL drop of Compound A formulation (or vehicle alone) into the conjunctival sac. Both eyes received the same treatment to control for potential contralateral effects of a given treatment. Pharmacokinetics and Tissue Distribution
Compound A was tested for its efficacy in augmenting tear fluid production in rabbits. Prior work identified a formulation (0.325% CMC in Ringer's solution containing 0.015% BAC and 1% DMSO) that stably solubilized Compound A and was effective when delivered topically to mice.^15 A single application of 3 nmol Compound A ([…] of a 100 µM solution) increased tear volume by ˜60% for at least 9 hours compared to vehicle (FIG. 3A). […] When 3 nmol of Compound A was delivered in a more viscous formulation containing 0.625% (instead of 0.3%) CMC, to potentially increase Compound A ocular surface residence time, compound efficacy was unchanged (FIG. 3C).

[10] = pharmacokinetics in tear fluid by LC/MS; type: in vivo; conditions: rabbit
Procedure: Compound A was quantified by liquid chromatography/mass spectroscopy (LC/MS) at 15 min, 1 hour, 2 hours, 6 hours and 24 hours after a single, 3-nmol topical dose. To recover Compound A at indicated times, three eye washes of 30 μL sterile PBS were done with solution recovered from the lateral and medial canthi after manual eyelid blinking using 50-μL glass capillary tubes. Pooled washes were diluted in three volumes of ethyl acetate, centrifuged at 13,000 rpm for 15 min, and the collected supernatant was analyzed by LC/MS (Waters 2695 HPLC with Micromass ZQ).^14 LC was done on an Xterra MS C18 column (2.1 mm×100 mm, 3.5 μm) with 0.2 mL/min water/acetonitrile containing 0.1% formic acid, 12 min linear gradient, 5-95% acetonitrile.
Corresponding compound concentrations in tear fluid (open circles, right ordinate) were estimated using tear volumes deduced from STT measurements in FIG. 2A.

[11] = system: cAMP; conditions: prior studies; cited from earlier work
[12] = system: mice; conditions: cited from earlier work
[13] = system: mice; conditions: lacrimal gland ablation, three times daily; cited from earlier work
[14] = system: ENaC; assay: short-circuit current in freshly isolated rabbit conjunctiva, amiloride; conditions: amiloride 10 μM
Procedure: Short-circuit current was measured in freshly isolated rabbit conjunctiva, as described^16 with modification. Rabbits were euthanized by injection of 150 mg/kg euthasol into the marginal ear vein. The entire eyeball with eyelids intact was removed from the orbit to preserve conjunctival epithelium integrity. Within 10 min a sheet of forniceal and palpebral conjunctiva was dissected, mounted onto a P2304 tissue slider (Physiologic Instruments, San Diego, CA), and placed into the Ussing chamber. The apical and basolateral chambers contained (in mM): 120 NaCl, 3 KCl, 1 CaCl2, 1 MgCl2, 10 glucose, 25 NaHCO3 and 5 HEPES, pH 7.4. Solutions were bubbled with 95% O2/5% CO2 and maintained at 37° C. Hemichambers were connected to a DVC-1000 voltage clamp (World Precision Instruments Inc., Sarasota, FL) via Ag/AgCl electrodes and 3 M KCl agar bridges.

[15] = system: ENaC; assay: open-circuit ocular surface potential difference (PD) in anesthetized rabbits, ENaC; conditions: rabbit, normal Cl- solution with amiloride 100 μM
Procedure: Open-circuit transepithelial potential difference (PD, in mV) at the ocular surface was measured continuously in anesthetized rabbits using a procedure modified from that established in mice. […] Rabbits were intubated and anesthetized with isoflurane, and respiratory rate, blood pressure and body temperature were monitored. For PD recording, solutions (see below) were serially perfused at 10 mL/min through PE-90 plastic tubing using a gravity multi-reservoir pinch-valve system (ALA Scientific, Westbury, NY) and a variable-flow peristaltic pump (medium flow model; Thermo Fisher Scientific, Fair Lawn, NJ). A probe catheter was fixed onto an adjustable stereotaxic frame with the tip immersed in solution contacting the ocular surface. Excess fluid was aspirated by continuous suction (low-powered wall vacuum) using ⅛-inch tubing (inner diameter 3/32 inch) positioned 3 mm from the orbit in order to maintain near-constant perfusate volume in contact with cornea, bulbar conjunctiva and palpebral conjunctiva without fluid runoff. The measuring electrode contacted the perfusion catheter and was connected to a high-impedance voltmeter (IsoMilivolt Meter; World Precision Instruments, Sarasota, FL). The reference electrode was grounded using a winged, 25-gauge needle filled with normal saline inserted subcutaneously in the abdomen. […]

[16] = target: P2Y2 receptors (Homo sapiens, UniProt P41231); conditions: phase III trials in the United States; cited from earlier work
Sequence of P2Y2 receptors (P41231 whole entry): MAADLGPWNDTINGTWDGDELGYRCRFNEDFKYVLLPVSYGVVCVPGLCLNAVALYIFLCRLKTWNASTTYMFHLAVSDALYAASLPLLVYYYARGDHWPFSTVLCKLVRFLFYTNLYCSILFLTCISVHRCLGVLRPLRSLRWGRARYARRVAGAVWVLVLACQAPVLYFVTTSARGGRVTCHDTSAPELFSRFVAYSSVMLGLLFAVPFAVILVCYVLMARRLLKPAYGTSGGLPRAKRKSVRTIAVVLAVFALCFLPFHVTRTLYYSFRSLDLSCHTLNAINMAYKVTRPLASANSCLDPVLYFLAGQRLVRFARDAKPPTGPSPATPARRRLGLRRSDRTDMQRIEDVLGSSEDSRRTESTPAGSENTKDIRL

[17] = rabbit, single topical dose of 3 nmol
[18] = 25 picomol topical administration

For “3-[(3-Trifluoromethyl)phenyl]-5-[(4-carboxyphenyl)methylene]-2-thioxo-4-thiazolidinone [CFTRinh-172, reference compound]”, the “effect on the increases in short-circuit current” value ([1]; inhibitor added last) was “inhibited” and the “effect on the PD changes” value ([2]; CFTRinh-172 10 μM in final perfusion solution) was “largely reversed”.
With `CNc1nc(Nc2ccccc2)nc(OCC(F)(F)C(F)F)n1` [Compound A, N-Methyl-N′-phenyl-6-(2,2,3,3-tetrafluoropropoxy)-1,3,5-triazine-2,4-diamine] the “IOP, vehicle vs. treated eyes” value ([3]; 3 nmol twice-daily for 28 days) was “No significant differences”, the Lissamine green staining ([3]; 3 nmol twice-daily for 28 days) was “no injury to the ocular surface” and the “central corneal thickness, vehicle vs. treated eyes” value ([3]; 3 nmol twice-daily for 28 days) was “No significant differences”. For the same compound, the slit-lamp evaluation ([3]; 3 nmol twice-daily for 28 days) was “no evidence of conjunctival hyperemia, anterior chamber inflammation, or lens opacification”, the “histology of cornea, conjunctiva, lens, ciliary body, retina” value ([3]; day 28) was “no pathological changes” and the “acute ocular irritation (blinking, behavior)” value ([3]; following topical administrations) was “No apparent acute ocular irritation”. The “level in aqueous and vitreous fluid, lens and iris/ciliary body” value [4] was “near or below the limit of detection”, the “level in blood, heart, brain, liver and kidney” value [4] was “below the limit of detection” and the “level in vitreous fluid” value [4] was “not detected”. The “rank of levels in ocular tissues” value [4] was “cornea>conjunctiva>>retina”, the concentration at 28 days ([4]; retina, topical, read-out: level in retina, equivalent concentration) was < 10 nM and the “tear volume (STT)” value [5] was “augmented tear volume in a sustained fashion without tachyphylaxis”. For the same compound, the hepatic metabolism [6] was “rapidly metabolized by the liver; also recorded: rapid predicted hepatic metabolism”, the “extent of CFTR activation” value [7] was “fully activated CFTR” and the EC50 [7] was ~0.25 µM. For the same compound, the “potency of CFTR activation” value ([7]; prior studies) was “nanomolar potency”, the “effect in CFTR-deficient mice” value [8] was “without effect; also recorded: absence of Compound A effect” and the “change in short-circuit current” value ([1]; 1 and then 10 μM Compound A after forskolin 25 nM) was “further increased”. For the same compound, the EC50 ([1]; rabbit conjunctiva ex vivo, data at 1 vs. 10 μM, read-out: apparent EC50 of CFTR activation (short-circuit current)) was < 1 µM, the “increase in tear fluid volume” value ([9]; from STT wetting using reported relationship between STT wetting and volume) was 2.7 µL and the “compound efficacy in more viscous formulation” value ([9]; rabbit, 3 nmol, 0.625% (instead of 0.3%) CMC) was “unchanged”. For the same compound, the “increase in tear volume compared to vehicle” value ([9]; rabbit, single application of 3 nmol, 0.3% CMC) was ~60%, the tear production ([9]; rabbit, single dose 0.75 nmol) was “no significant increase” and the “activity on tear production” value ([9]; rabbit, single dose 1.5 nmol) was “reduced duration of activity”. For the same compound, the “augmentation in tear production by STT, average over 9 hours” value [9, 17] was 5.3 mm, the “duration of increase in tear volume / tear secretion” value [9, 17] was “at least 9 hours” and the “time at predicted therapeutic concentrations in tear fluid” value ([10]; 3-nmol dose, concentrations estimated using tear volumes from STT) was “at least several hours”. The “Compound A recovered from tear fluid over time” value ([10]; single topical dose of 3 nmol, three eye washes) was “approximate exponential decline”, the “elevation of total cellular cAMP” value [11] was “without detectable elevation” and the “duration of doubled tear volume” value ([12]; delivered topically) was “four”. The tear volume ([12]; delivered topically) was “doubled tear volume”, the “time to maximal CFTR activation at the ocular surface (PD)” value ([2]; after exposure) was “within a few minutes” and the “change in ocular surface PD” value ([2]; low Cl- + amiloride, Compound A 1 and 10 μM) was “substantial depolarization”.
For `CCN(CC)c1nc(Nc2ccccc2)nc(OC(C(F)(F)F)C(F)(F)F)n1` [Compound C], the “extent of CFTR activation” value [7] is given as “fully activated CFTR”, the EC50 [7] is given as ~0.03 µM and the corneal epithelial disruption [13] is given as “prevented corneal epithelial disruption”. The “pathology when administered after development of dry eye” value [13] was “reversed pathology”, the tear volume [13] was “normalized tear volume” and the “duration of increase in tear volume” value [12, 18] was 8 h. For the same compound, the tear volume [12, 18] was “sustained increase in tear volume”.
For `N=C(N)NC(=O)c1nc(Cl)c(N)nc1N` [amiloride], the “effect on short-circuit current” value [14] was “no effect” and the “change in ocular surface PD” value [15] was “initial depolarization”.
In the case of `O=c1ccn([C@@H]2O[C@H](COP(=O)(O)OP(=O)(O)OP(=O)(O)OP(=O)(O)OC[C@H]3O[C@@H](n4ccc(=O)[nH]c4=O)[C@H](O)[C@@H]3O)[C@@H](O)[C@H]2O)c(=O)[nH]1` [diquafosol], the “efficacy in dry eye” value [16] is given as “did not show efficacy”.

Source: patent US11839616B2, “Ocular pharmaceutical compositions” (THE REGENTS OF THE UNIVERSITY OF CALIFORNIA, priority 2017, dated 2023)
